The values that follow come from publication PMC10892041, “Vanadium Complexes with Thioanilide Derivatives of Amino Acids: Inhibition of Human Phosphatases and Specificity in Various Cell Models of Metabolic Disturbances” (Pharmaceuticals, 2024).

Data set [1] concerns hepatocytes HepG2. In words: Inhibition of hepatic gluconeogenesis (glucose synthesis). To be noted: known inhibitors of gluconeogenesis; concentration not given.
The subject of data set [2] is myocytes C2C12. In words: Glucose consumption (utilization) by myocytes C2C12. The class given is cell-based, mouse. To be noted: 50 µM (highest tested concentration); 24 h. As to the method: (§1) The myocyte C2C12 cell line (ATCC CRL-1772), a subclone of myoblasts from mouse muscles, was cultured according to standard protocol in DMEM supplemented with 10% fetal calf serum, 100 IU/ml penicillin, and […] streptomycin at 37 °C in 5% CO2. Cells were pleated on a 96-well microplate and after reach confluence were differentiated in medium with 2% horse serum. Differentiation medium was changed every 72 h.
Differentiated myocytes C2C12 were used after 8 days of differentiation. The culture medium was changed for medium with 0.2% bovine serum albumin, 100 IU/mL penicillin, and 100 µg/mL streptomycin, and after 2 hours of incubation, the medium was changed to fresh medium containing the tested compounds. […]
Glucose concentration was determined based on enzymatic reaction with glucose oxidase and fluorometrically detection reaction end product using an AmplexRed Glucose/Glucose Oxidase Kit (Thermo Fisher Scientific) according to the manufacturer’s protocol. […] Fluorescence signal was measured at excitation of 530 nm and emission of 580 nm using a multimodal microplate reader POLARStar Omega (BMG Labtech), and glucose concentration in samples was calculated in MARS Data Analysis Software version 3.02.R2 (BMG Labtech) based on glucose standards. […] The final results were expressed as the percent of controls containing cells and solvent only.

The target in the next data set is T1, PTP1B (Homo sapiens, UniProt P18031).
T1 construct: purchased Sigma-Aldrich
T1 sequence (P18031 1-435): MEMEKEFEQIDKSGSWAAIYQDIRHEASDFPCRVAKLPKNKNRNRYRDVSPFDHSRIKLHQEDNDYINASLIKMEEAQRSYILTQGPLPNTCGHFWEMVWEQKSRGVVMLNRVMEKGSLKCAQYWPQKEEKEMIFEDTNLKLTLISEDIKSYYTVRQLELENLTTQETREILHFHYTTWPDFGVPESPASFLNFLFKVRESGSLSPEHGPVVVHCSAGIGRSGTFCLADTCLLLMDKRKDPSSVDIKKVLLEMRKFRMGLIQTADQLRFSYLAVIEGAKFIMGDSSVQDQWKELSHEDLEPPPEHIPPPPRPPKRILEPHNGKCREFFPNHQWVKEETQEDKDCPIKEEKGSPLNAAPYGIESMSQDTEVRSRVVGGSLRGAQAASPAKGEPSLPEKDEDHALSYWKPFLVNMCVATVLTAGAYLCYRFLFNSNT
In words: Inhibition of human recombinant tyrosine phosphatase PTP1B (DiFMUP fluorescence). The class given is biochemical. To be noted: 1 µM; control solvent only; SD did not exceed 6%. Here is the method: (§2) To determine the ability of the tested compounds for inhibition tyrosine phosphatases, human recombinant proteins were used (Sigma-Aldrich). The reactions were performed in black opaque 384-well microplates (PerkinElmer, Waltham, MA, USA). An equal volume of phosphatase solution in a reaction buffer (25 mM of 3-(N-morpholino)propanesulfonic acid (MOPS), 50 mM NaCl, 1 mM dithiothreitol (DTT), and 0.05% Tween-20 (pH 7.0)) was added to the solution of the tested compound on microplate. These solutions were dispensed using an automated injector. The following final concentrations of the tested phosphatases were used: PTP1B 50 ng/mL, SHP1 400 ng/mL, SHP2 50 ng/mL, LAR 5 ng/mL, and PTPRA 100 ng/mL. After 10 min, a solution of phosphate 6,8-difluoro-4-methyl (DiFMUP; Thermo Fisher Scientific) was added until its final concentration was 0.1 mM. Samples were incubated for 20 miN at 23 °C, and then the measurements of fluorescence intensity (excitation 355 and emission […]) were performed on a multifunctional plate reader POLARstar Omega (BMG Labtech, Ortenberg, Germany). Assays were performed in triplicate. For the screening assays, the final concentration of the tested compounds was 1 µM. The results were expressed as percent inhibition of untreated control (enzyme with vehicle only) for the screening tests. […] IC50 were calculated using GraphPad Prism version 6.0 software (GraphPad Software, Boston, MA, USA).

For the next data set, the target named is T2, LAR (Homo sapiens, UniProt P10586).
T2 sequence (P10586 1352-1607 limits assumed): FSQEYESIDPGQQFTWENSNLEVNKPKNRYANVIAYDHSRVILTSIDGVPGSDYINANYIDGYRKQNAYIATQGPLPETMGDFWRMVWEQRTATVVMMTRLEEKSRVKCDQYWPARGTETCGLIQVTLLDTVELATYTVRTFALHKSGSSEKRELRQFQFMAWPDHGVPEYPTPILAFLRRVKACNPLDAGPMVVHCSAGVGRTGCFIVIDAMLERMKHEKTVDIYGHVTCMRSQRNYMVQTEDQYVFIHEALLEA
In words: Inhibition of human recombinant tyrosine phosphatase LAR (DiFMUP fluorescence). It is filed as biochemical. To be noted: 1 µM; control solvent only; SD did not exceed 6%. As to the method: as §2

The next data set addresses T3, SHP2 (Homo sapiens, UniProt Q06124).
T3 construct: purchased Sigma-Aldrich
T3 sequence (Q06124 1-593): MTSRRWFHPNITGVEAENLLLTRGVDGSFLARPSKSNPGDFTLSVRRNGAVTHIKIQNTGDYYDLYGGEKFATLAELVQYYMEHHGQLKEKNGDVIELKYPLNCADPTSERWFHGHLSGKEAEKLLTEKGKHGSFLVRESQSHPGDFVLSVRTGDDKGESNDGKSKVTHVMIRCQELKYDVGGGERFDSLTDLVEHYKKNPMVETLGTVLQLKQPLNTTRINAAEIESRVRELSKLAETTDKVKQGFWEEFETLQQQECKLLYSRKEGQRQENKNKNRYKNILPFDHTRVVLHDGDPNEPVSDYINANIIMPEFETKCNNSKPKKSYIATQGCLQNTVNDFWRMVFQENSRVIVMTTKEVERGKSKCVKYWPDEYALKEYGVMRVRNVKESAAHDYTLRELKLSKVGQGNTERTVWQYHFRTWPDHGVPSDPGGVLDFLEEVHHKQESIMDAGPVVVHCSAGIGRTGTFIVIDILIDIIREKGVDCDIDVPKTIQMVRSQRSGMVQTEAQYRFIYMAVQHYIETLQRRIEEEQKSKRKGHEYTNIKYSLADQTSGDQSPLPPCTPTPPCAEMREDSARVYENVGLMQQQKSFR
In words: Inhibition of human recombinant tyrosine phosphatase SHP2 (DiFMUP fluorescence). It is filed as biochemical. To be noted: 1 µM; control solvent only; SD did not exceed 6%. Here is the method: as §2

Data set [3] has as its system myocytes C2C12. In words: Viability of myocytes C2C12 after 24 h incubation (resazurin-based reagent). To be noted: 50 µM. As to the method:
Simultaneously with glucose consumption tests, the viability of myocytes C2C12 was examined due to their prolonged 24 h incubation with vanadium complexes.
Prolonged incubation of the cells with vanadium complexes, as was the case during the study of the effect on glucose consumption, more closely corresponds to the actual conditions of clinical use, also allowing for the identification of possible cytotoxic effects. […] A Resazurin-based reagent is reduced proportionally to the metabolic activity of cells as a result of the transference of electrons from NADPH+H^+, the amount of which strictly depends on glucose metabolism.
(In general: Resazurin is reduced to fluorescent resorufin, in cell work by metabolically active cells.)

A further data set addresses T4, SHP1 (Homo sapiens, UniProt P29350).
T4 construct: purchased Sigma-Aldrich
In words: Inhibition of human recombinant tyrosine phosphatase SHP1 (DiFMUP fluorescence). To be noted: 1 µM; control solvent only; SD did not exceed 6%. The class given is biochemical. As to the method: as §2

For data set [4], the system named is myocytes C2C12. Put plainly: Scintillation proximity assay, transport of [14C]-deoxy-D-glucose into myocytes C2C12. The class given is cell-based, mouse. As to the method:
as §1
Scintillation proximity assay (SPA) is a method to measure the real-time accumulation of radiolabeled substrates by adherent cells with no filtration needed. Radioactivity concentrated closer to the scintillator embedded in the plastic bottom of each well provides a stronger signal than the radiolabeled substrate in the culture medium. Uptake of radiolabeled 2-deoxy-D-[U-14C]-glucose was conducted based on previous descriptions.
(§3) After 24 h incubation, the tested complexes were added. After 2 h incubation at 37 °C in 5% CO2, the medium was changed to low-glucose medium (1000 mg/L), and the tested complexes were added again, with further incubation for 4 h being conducted.
(§4) For cells proceeded as above, 2-deoxy-D-[U-14C]-glucose (250–350 mCi/mmol, NEC720A, PerkinElmer) solution in KRB with a total activity of 0.03 mCi was added to each well. […] Non-specific radioactivity was subtracted from each result (cpm). Two independent experiments with triplicates were conducted.
In general terms: Scintillation proximity formats need no separation of bound from free tracer.

For data set [5], the system named is hepatocytes HepG2. In words: Transport of [14C]-deoxy-D-glucose into insulin-resistant hepatocytes (TNF or oleic acid). To be noted: 10 µM; p ≤ 0.05. The class given is cell-based, human. Here is the method: as §3, §4
Next, the compounds in fresh medium were added, further incubation was carried out for 24 h, and the scintillation proximity assay for the uptake of radiolabeled 2-deoxy-D-[U-14C]-glucose was conducted as described in the section above.

Data set [6] relates to myocytes C2C12. Details: method as in doi:10.1016/j.poly.2020.114589. To be noted: 50 µM; previously published by the authors; cited from earlier work.

Where two headings read alike, the source gives them in different places.

T4 sequence (P29350 whole entry): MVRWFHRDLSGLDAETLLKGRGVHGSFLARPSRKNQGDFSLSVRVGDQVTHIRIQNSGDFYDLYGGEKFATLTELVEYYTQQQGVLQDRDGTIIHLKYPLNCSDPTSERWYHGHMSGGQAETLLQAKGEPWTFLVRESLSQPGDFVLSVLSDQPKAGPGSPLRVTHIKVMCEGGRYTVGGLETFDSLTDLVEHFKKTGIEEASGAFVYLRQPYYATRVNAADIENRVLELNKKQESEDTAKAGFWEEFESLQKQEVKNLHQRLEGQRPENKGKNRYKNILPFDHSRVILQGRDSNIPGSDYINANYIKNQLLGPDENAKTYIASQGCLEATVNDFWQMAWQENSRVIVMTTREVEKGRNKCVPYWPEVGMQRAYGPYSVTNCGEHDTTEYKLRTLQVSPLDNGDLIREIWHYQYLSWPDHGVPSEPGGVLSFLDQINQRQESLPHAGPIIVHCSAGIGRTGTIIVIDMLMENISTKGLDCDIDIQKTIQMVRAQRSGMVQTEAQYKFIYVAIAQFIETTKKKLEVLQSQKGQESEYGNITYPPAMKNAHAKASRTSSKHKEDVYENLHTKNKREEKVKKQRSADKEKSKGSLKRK

Turning to `NC(=O)c1ncn([C@@H]2O[C@H](CO)[C@@H](O)[C@H]2O)c1N` [AICAR, 5-aminoimidazole-4-carboxamide riboside], the “Inhibition of glucose synthesis by hepatocytes, experimental control compounds” value with hepatocytes HepG2 [1] was “showed inhibition of glucose synthesis”.

For the compound `COc1ccc(C(=O)NN=Cc2cc(Br)ccc2[O][V]2[O]C(c3ccc(OC)cc3)=NN=Cc3cc(Br)ccc3[O]2)cc1` [VC055, [V(L11)(HL11)]], in the data set with myocytes C2C12 [2], the “Glucose consumption by myocytes C2C12, % of the control” value was “No statistically significant effect”. For the same compound, the “Inhibition of PTP1B, percentage of inhibition of the control” value at PTP1B came out at 24%. Also, the “Inhibition of LAR, percentage of inhibition of the control” value at LAR was 18%. Besides, the “Inhibition of SHP2, percentage of inhibition of the control” value at SHP2 was found to be 57%. The “Cell viability of myocytes C2C12, % of the control” value with myocytes C2C12 [3] turned out to be 127 ± 5%. Moreover, the “Inhibition of SHP1, percentage of inhibition of the control” value at SHP1 stood at 56%.

With `O.O=C(NN=Cc1cc(Br)ccc1[O][V]1[O]C(c2ccccc2)=NN=Cc2cc(Br)ccc2[O]1)c1ccccc1` [VC032, [V(L8)(HL8)]⋅H2O], the “Glucose consumption by myocytes C2C12, % of the control” value in the data set with myocytes C2C12 [2] is given as “No statistically significant effect”. The “Inhibition of PTP1B, percentage of inhibition of the control” value at PTP1B is reported as 9%. In addition, the “Inhibition of LAR, percentage of inhibition of the control” value at LAR was 8%. Also, the “Transport of [14C]-deoxy-D-glucose into C2C12 myocytes, % of the control” value in the data set on myocytes C2C12 [4] (50 µM, control solvent only) was 266 ± 36 % of control. Besides, the “Transport of [14C]-deoxy-D-glucose into C2C12 myocytes” value in the data set on myocytes C2C12 [4] (10 and 1 µM) is “significant effects”. For the same compound, the “Inhibition of SHP2, percentage of inhibition of the control” value at SHP2 is reported as 48%. Besides, at SHP1, the “Inhibition of SHP1, percentage of inhibition of the control” value was 44%.

As for `O=C(NN=Cc1cc(Br)ccc1[O][V]1[O]C(c2cc3ccccc3cc2O)=NN=Cc2cc(Br)ccc2[O]1)c1cc2ccccc2cc1O` [VC067, [V(L12)(HL12)]], the “Reversal of decreased [14C]-deoxy-D-glucose transport, insulin resistance induced by oleic acid” value in the data set with hepatocytes HepG2 [5] is “reversed the decrease”. In addition, the “Inhibition of PTP1B, percentage of inhibition of the control” value on PTP1B is given as 42%. Also, the “Inhibition of LAR, percentage of inhibition of the control” value on LAR is reported as 39%. For the same compound, the “Inhibition of SHP2, percentage of inhibition of the control” value at SHP2 was 74%. In the data set on myocytes C2C12 [6], the “Transport of [14C]-deoxy-D-glucose into C2C12 myocytes, % of the control” value is listed as 199 ± 3 % of control. The “Inhibition of SHP1, percentage of inhibition of the control” value on SHP1 is reported as 70%.
